The text below walks through data of patent EP4789671A1, “PHARMACEUTICAL COMPOSITION CONTAINING URACIL DERIVATIVE” (priority 2023, dated 2025).

Data set [1] deals with T1, Recombinant SARS-CoV-2 3CL Protease (Severe acute respiratory syndrome coronavirus 2, UniProt P0DTD1).
T1 construct: Recombinant SARS-CoV-2 3CL Protease; purchased
The data set is described as follows: Inhibitory activity test on SARS-CoV-2 3CL protease (Test Example 2-1). It is filed as biochemical. The conditions noted are these: 8 µM substrate, 6 nM or 0.6 nM enzyme, 3 to 5 hours.

Data set [2] concerns SARS-CoV-2 hCoV-19/Japan/TY11-927/2021. It is filed as in vivo, Syrian hamsters. The conditions noted are these: aged (11-month-old) hamsters.
For data set [3], the system named is HCoV-OC43. In words: microbe, parasite or virus in culture. In kind it is cell-based. The settings on record: Betacoronavirus 1, OC43, MRC5; MRC-5 cells, 72 hours.
Data set [4] has as its system SARS-CoV-2. In words: Inhibitory activity of cytopathic effect (CPE) in VeroE6/TMPRSS2 cells (Test Example 3). It is filed as cell-based.
Data set [5] in a line: Cytotoxicity in MRC-5 cells in the absence of virus (Test Example 5). In kind it is cell-based. The settings on record: human. The procedure:
MRC-5 cells (2×10^4 cells/well) suspended in growth medium (DMEM supplemented with 10% FBS and penicillin-streptomycin) were seeded into 96-well plates on the day before infection. On the following day, HCoV-OC43 (300 TCID50/well) suspended in maintenance medium (MEM supplemented with 2% FBS and penicillin-streptomycin) was added to infect the cells for 1 hour. The viral fluid is then removed, maintenance medium containing the reagent to be tested is added, and cultured for 72 hours in a CO2 incubator. To evaluate the cytotoxicity of the reagent to be tested, the same procedure was performed in the absence of virus.
The plate that has been cultured for 72 hours is returned to room temperature, subsequently CellTiter-Glo (registered trademark) 2.0 is dispensed into each well, and the plate is mixed using a plate mixer. After standing for a predetermined period of time, the luminescent signal (Lum) is measured using a plate reader.

The test system of data set [6] is HCoV-229E. In words: microbe, parasite or virus in culture. The conditions noted are these: Human coronavirus 229E, MRC5; MRC-5 cells, 72 hours. It is filed as cell-based.
In data set [7] the test system is SARS-CoV-2 hCoV-19/Japan/TY41-702/2022 strain (Omicron BE.1/BA.5-like). Details: species or system Syrian hamsters. The conditions noted are these: hamster, in vivo.
Data set [8] concerns SARS-CoV-2 hCoV-19/Japan/TY7-501/2021. In words: Effect of human, mouse and hamster sera on anti-SARS-CoV-2 activity (Test Example 7). In kind it is cell-based. The conditions noted are these: Severe acute respiratory syndrome coronavirus 2, 24 h, VeroE6/TMPRSS2 cells, viral RNA, 1 day.
Data set [9] has as its system SARS-CoV-2 hCoV-19/Japan/TY11-927/2021 (Delta). It is filed as in vivo, Syrian hamsters. The conditions noted are these: 4 days after initiation of co-housing.
The subject of data set [10] is SARS-CoV-2 hCoV-19/Japan/TY41-702/2022 (Omicron BE.1/BA.5-like). In words: Viral proliferation-suppression effect using human airway epithelial cells (Test Example 8). It is filed as cell-based. The settings on record: Severe acute respiratory syndrome coronavirus 2, Epithelial cell, 48 h.
Data set [11] has as its system SARS-CoV-2 hCoV-19/Japan/TY41-702/2022 strain (Omicron BE.1/BA.5-like). In kind it is in vivo, Syrian hamsters.
The test system is the same in data set [12]. Details: species or system Syrian hamsters. The settings on record: hamster, in vivo. The source holds these as a separate data set.
Data set [13] relates to SARS-CoV-2. The data set is described as follows: Cytopathic effect (CPE) suppression test using HEK293T/ACE2-TMPRSS2 cells (Test Example 1). In kind it is cell-based. The settings on record: Severe acute respiratory syndrome coronavirus 2, HEK-293T, 72 h. In general terms: Protection from cytopathic effect is a common read-out in antiviral testing.

Structures are written as SMILES. Where “and” joins values, the source holds several entries; their conditions need not be identical. Identical values can stand only once. Like-named read-outs stand apart in the source and are kept apart here.

`C#CCn1c(N2CC3(C2)CC(F)(F)C3)c(-c2ccc(F)c(Cl)c2)c(=O)n(-c2cncc(Cl)c2)c1=O` [Compound II-1]: the IC50 (in general, the point on the concentration scale where inhibition reaches its midpoint) in data set [1] came out at 0.68 nM.
For the molecule `N#CCn1c(N2CC3(C2)CC(F)(F)C3)c(-c2ccc(F)c(Cl)c2)c(=O)n(-c2cncc(Cl)c2)c1=O` [Compound I-1], in data set [2], the survival entry is on record as “all hamsters survived until 10 days after infection”. The body weight loss entry is on record as “suppression of the body weight loss was observed” in [2] (up to 10 days) and “suppression of the body weight loss was observed” in data set [11] (hamster, in vivo). Besides, the EC50 (in general, the concentration at which the effect is half-maximal) in data set [3] was determined as 92 ± 21 nM; in [4] (Severe acute respiratory syndrome coronavirus 2, VeroE6/TMPRSS2, Alpha, B. 1. 1. 7, strain QHN002), 3.85 ± 1.41 nM; in [4] (Severe acute respiratory syndrome coronavirus 2, VeroE6/TMPRSS2, Ancestral, Pango lineage A, strain WK-521), 8.77 ± 1.92 nM; in data set [4] (Severe acute respiratory syndrome coronavirus 2, VeroE6/TMPRSS2, Beta, B. 1. 351, strain TY8-612), 9.64 ± 1.2 nM; in [4] (Severe acute respiratory syndrome coronavirus 2, VeroE6/TMPRSS2, Delta, AY. 122, strain TY11-927) it was 4.91 ± 1.29 nM; in data set [4] (Severe acute respiratory syndrome coronavirus 2, VeroE6/TMPRSS2, Gamma, P. 1, strain TY7-501), 8.91 ± 1.62 nM. Besides, the EC50 in data set [4] (Severe acute respiratory syndrome coronavirus 2, VeroE6/TMPRSS2, Omicron BA. 1. 1, strain TY38-871) was 2.63 nM; in [4] (Severe acute respiratory syndrome coronavirus 2, VeroE6/TMPRSS2, Omicron BA. 2, strain TY40-385), 7.38 ± 3.82 nM; in data set [4] (Severe acute respiratory syndrome coronavirus 2, VeroE6/TMPRSS2, Omicron BA. 2. 12. 1, strain TY41-721), 2.27 ± 0.26 nM; in data set [4] (Severe acute respiratory syndrome coronavirus 2, VeroE6/TMPRSS2, Omicron BA. 2. 75, strain TY41-716), 8.44 ± 1.25 nM; in [4] (Severe acute respiratory syndrome coronavirus 2, VeroE6/TMPRSS2, Omicron BA. 4. 1, strain TY41-703) it was 2.45 ± 0.4 nM; in [4] (Severe acute respiratory syndrome coronavirus 2, VeroE6/TMPRSS2, Omicron BA. 4. 6, strain TY41-763) it was 6.91 ± 1.21 nM. Also, the EC50 was 6.8 ± 1.38 nM in data set [4] (Severe acute respiratory syndrome coronavirus 2, VeroE6/TMPRSS2, Omicron BA. 5. 2. 1, strain TY41-704); 6.54 ± 3.49 nM in data set [4] (Severe acute respiratory syndrome coronavirus 2, VeroE6/TMPRSS2, Omicron BE. 1/BA. 5-like, strain TY41-702); 9.49 ± 0.56 nM in data set [4] (Severe acute respiratory syndrome coronavirus 2, VeroE6/TMPRSS2, Omicron BF. 7, strain TY41-820); 7.39 ± 1.97 nM in data set [4] (Severe acute respiratory syndrome coronavirus 2, VeroE6/TMPRSS2, Omicron BF. 7. 4. 1, strain TY41-828); 11 ± 1.7 nM in [4] (Severe acute respiratory syndrome coronavirus 2, VeroE6/TMPRSS2, Omicron BQ. 1. 1, strain TY41-796); 5.69 ± 2.44 nM in data set [4] (Severe acute respiratory syndrome coronavirus 2, VeroE6/TMPRSS2, Omicron CH. 1. 1. 11, strain TY41-832). For the same molecule, the EC50 in data set [4] (Severe acute respiratory syndrome coronavirus 2, VeroE6/TMPRSS2, Omicron XBB. 1, strain TY41-795) worked out at 5.11 ± 2.15 nM; in data set [4] (Severe acute respiratory syndrome coronavirus 2, VeroE6/TMPRSS2, Omicron XBB. 1. 5, strain 23-018), 7.4 ± 1.08 nM; in [4] (Severe acute respiratory syndrome coronavirus 2, VeroE6/TMPRSS2, Omicron XBB. 1. 9. 1, strain TY41-951) it was 12.6 ± 0.9 nM; in data set [4] (Severe acute respiratory syndrome coronavirus 2, VeroE6/TMPRSS2, Omicron XBB. 1. 16, strain TY41-984) it was 7.06 ± 2 nM; in data set [4] (Severe acute respiratory syndrome coronavirus 2, VeroE6/TMPRSS2, Omicron XBF, strain TY41-831), 6.27 ± 3.3 nM; in data set [4] (Severe acute respiratory syndrome coronavirus 2, VeroE6/TMPRSS2, Omicron XE, strain TY41-686), 7.1 ± 2.59 nM. The half-maximal effective concentration (EC50) was found to be 3570 ± 510 nM in [6] and 1.66 nM in data set [13]. Moreover, the “plasma concentrations immediately before infection” value runs as follows: (3 mg/kg subcutaneous, administered one day prior to infection) 6.1 ng/mL; (3 mg/kg subcutaneous, administered three days prior to infection) 5.9 ng/mL; (10 mg/kg subcutaneous, administered one day prior to infection) 12.5 ng/mL; (10 mg/kg subcutaneous, administered three days prior to infection) 3.0 ng/mL. In data set [5], the CC50 (in general, the concentration that lowers cell viability or growth by half) at 72 h was above 100000 nM. In addition, the lung weight/body weight in data set [7] was 8.24 mg/g and 5.75 mg/g and 5.57 mg/g. The EC90 (usually the point of the concentration-response curve where the effect stands at 90%) is 8.17 nM in data set [8] (extrapolated to 100% hamster serum by linear regression, read-out: Hamster serum PA-EC90); 7.9 nM in data set [8] (extrapolated to 100% human serum by linear regression, read-out: Human serum PA-EC90); 19.8 nM in data set [8] (extrapolated to 100% mouse serum by linear regression, read-out: Mouse serum PA-EC90); 2.41 ± 1.61 nM in data set [10]. Also, the “numbers of non-infected hamsters (Contact) in which viral titers in nasal lavage fluid or supernatants of lung homogenate reached the detection limit (1.8 log10 TCID50/mL) or higher” value in [9] (3 mg/kg single subcutaneous to Contact 12 hours prior to co-housing) is given as 5/6; in data set [9] (10 mg/kg single subcutaneous to Contact 12 hours prior to co-housing), 6/6; in data set [9] (30 mg/kg single subcutaneous to Contact 12 hours prior to co-housing), 3/6; in data set [9] (90 mg/kg single subcutaneous to Contact 12 hours prior to co-housing) it was 0/6. The “viral titers in nasal turbinate homogenates” value in data set [11] (hamster, in vivo) was 4.80 log10 TCID50/mL and 3.36 log10 TCID50/mL and 5.38 log10 TCID50/mL and 5.01 log10 TCID50/mL. In addition, the “plasma concentration exhibiting the effect of suppressing viral proliferation in lung and nasal turbinate homogenates” value in data set [11] (hamster, in vivo, sc) is recorded as at least 12 ng/mL. For the same molecule, in [11] (prophylactic subcutaneous administration), the “plasma concentrations at the time of viral infection exhibiting the effect of suppressing body weight loss” value is at least 6 ng/mL. For the same molecule, in data set [12], the body weight result is “the decrease in body weight was suppressed”.
For the molecule `[2H]c1cc(F)c(Cl)c([2H])c1-c1c(N2CC3(C2)CC(F)(F)C3)n(CC#N)c(=[18O])n(-c2cncc(Cl)c2)c1=[18O]` [Compound I-2], the response in data set [13] was half-maximal at 2.36 nM (EC50).
